In US4921871A, “Enolamides, pharmaceutical compositions and methods of use thereof for treating inflammation” (Warner-Lambert Company, priority 1987, dated 1990):
Values joined by “and” are separate entries in the source; they are usually repeats but may differ in a detail not shown here. Equal values may be shown once.

Key:
leukotriene receptor = target: T1, leukotriene receptor (Cavia porcellus, UniProt Q2NNR5); assay: Binding of 3H-Leukotriene D4 to Guinea Pig Lung Membranes (RBL)
T1 construct: Two pairs of lungs (1.3 g) from freshly sacrificed 300 g male guinea pigs; tissue Kuiper Rabbit Farm, Gary, Ind; (animals); host or cells: guinea pig lung, crude membranes
T1 sequence (Q2NNR5 1-340): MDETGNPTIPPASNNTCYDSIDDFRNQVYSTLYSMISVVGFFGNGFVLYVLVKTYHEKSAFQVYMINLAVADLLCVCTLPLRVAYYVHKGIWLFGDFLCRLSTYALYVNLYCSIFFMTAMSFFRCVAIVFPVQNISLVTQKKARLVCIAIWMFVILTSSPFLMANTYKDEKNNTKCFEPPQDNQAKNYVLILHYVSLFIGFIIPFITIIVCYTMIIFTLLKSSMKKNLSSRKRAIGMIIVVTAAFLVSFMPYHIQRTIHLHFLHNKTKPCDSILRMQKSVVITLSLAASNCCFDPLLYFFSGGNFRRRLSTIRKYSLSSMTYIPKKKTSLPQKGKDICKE
Experimental: Additionally, the activity, of the compounds having the Formula I of the present invention is determined by the well known leukotriene receptor binding assay that is described by R. F. Bruns, W. J. Thomsen and T. A. Pugsley in Life Sciences, 33, 645 (1983) or the Herxheimer in vivo antiallergy test described in H. Herxheimer, J. Physiol. (London), Vol. 177, p. 251 (1952).
[14,15-^3 H]leukotriene D4 (^3 H-LTD4) (25 Ci/mmol and 40 Ci/mmol) is purchased from New England Nuclear. Unlabeled LTC4 is a gift of Ono Pharmaceuticals (Japan). LTC4, LTD4, and LTE4 are purchased as methyl esters from Paesel GmbH (Frankfurt, W. Germany). Concentrations of the Paesel leukotrienes are calculated from their absorbance at 280 nm. Leukotriene esters are saponified overnight under N2 in 3.3% potassium carbonate at room temperature. Tritiated leukotrienes are stored as received from New England Nuclear at -20° C. Ono LTC4 (5 μg/ml) is stored at -60° C. in phosphate buffer pH - 6.8. Saponified Paesel leukotrienes are stored at -60° C. in 3.3% potassium carbonate (pH 9.0-9.5). Aliquots of leukotrienes are taken from stock solutions immediately after thawing, after which the stock solutions are immediately refrozen. 2-Amino-2-(hydroxymethyl)-1,3-propanediol (Tris) is Sigma pH 7.7 pre-set crystals, and dimethylsulfoxide is Aldrich Gold Label. Preparation of crude lung membranes
Two pairs of lungs (1.3 g) from freshly sacrificed 300 g male guinea pigs (older animals gave substantially lower binding) from Kuiper Rabbit Farm, Gary, Ind. are disrupted with a Polytron PT 10 (setting 4) for 30 seconds in 20 ml ice-cold 50 mM Tris adjusted with HCl to pH 7.7 at 25° C. (Tris buffer), filtered through a single layer of gauze to remove connective tissue, and centrifuged at 50,000 xg for ten min. The pellet is resuspended by homogenization with a Polytron in 20 ml Tris buffer, centrifuged at 50,000 xg for ten min., resuspended, incubated at 37° C. for 30 minutes, and centrifuged again. The final pellet is resuspended in Tris buffer and either used fresh or stored at -70° C.
All incubations are in triplicate for 60 minutes at 25° C. in 12×75 mm polystyrene tubes containing 1 ml Tris buffer with 20 mg original tissue wet weight of guinea pig lung membranes, 0.2 nM ^3 H-LTD4 (6,000-11,000 cpm), 10 mM MgCl2, and 1% dimethylsulfoxide. Leukotrienes are diluted in Tris buffer. All other test compounds dissolved at 10 mM in dimethylsulfoxide on the same day as the experiment, and diluted in dimethylsulfoxide to 100× the final incubation concentration. Control incubations receive an equal volume (10 μl) of dimethylsulfoxide; the resulting concentration of dimethylsulfoxide had no effect on binding. ^3 H-LTD4 is diluted to 2 nM in Tris buffer. The membrane suspension (20 mg/0.89 ml) contains sufficient MgCl2 to give 10 mM final concentration in the incubation. […] All additions are performed at 0° C. Immediately after the last addition, the incubation is initiated by agitating the rack of tubes on a vortex mixer and warming to 25° C. in a water bath. Tubes are vortexed at least once more during the incubation to ensure that the membranes remained suspended. Incubations are terminated after 60 minutes by filtering under reduced pressure through 25 mm Whatman GF/B filters followed by rapid washing three times with 4 ml of ice-cold Tris buffer. Filters are added to scintillation vials with 8 ml Formula 947 (New England Nuclear), left overnight, shaken, and the radioactivity counted in a scintillation counter (efficiency 40%). Nonspecific binding, defined as binding of ^3 H-LTD4 in the presence of 100 nM LTC4, is 300-500 cpm for all lots of ^3 H-LTD4. Binding to the filters in the absence of tissue is about 100 cpm, and is not affected by unlabeled LTC4. Specific binding, defined as total binding minus nonspecific binding, varied considerably from lot to lot of ^3 H-LTD4. […]

[1] = system: Human Leukocyte Lipoxygenase; assay: Human Leukocyte Lipoxygenase Assay (LDA-H); assay type: biochemical
Experimental: Whole blood is collected from normal volunteers and spun in a refrigerated centrifuge for four minutes at 1°-6° C. at 3800 g. The buffy coat is manually separated and washed twice with chilled 0.83% NH4 Cl and centrifuged at 1000 RPM for ten minutes at 4° C. The white cell is suspended in culture media-EMEM supplemented with 6% Agamma human serum, tricine buffer, and neomycin and recentrifuged at 1000 g to yield a pellet containing the leukocytes used for the preparation of the acetone pentane powder.
The acetone-pentane powder is prepared utilizing a modification of the procedure reported for human platelet lipoxygenase. See Siegel, et al, Arachidonate Metabolism via Lipoxygenase and 12-L-hydro-peroxy-5 Eicosatetraenoic Acid Peroxidase Sensitive to Antiinflammatory Drugs, Proc. Natl. Acad. Sci., U.S.A. 77:308, 1980 and D. P. Wallach and V. R. Brown, A Novel Preparation of Human Platlet Lipoxygenase, Biochem. Biophys. Acta. 663:361, 1981. Buffy coat prepared above is resuspended in 5-7 volumes of cold 0.1M Tris buffer, pH 7.4 containing 0.154M NaCl. The suspension is centrifuged at 13,300 g for ten minutes at 4° C. The resultant pellet is retained, resuspended in five volumes of cold acetone, recentrifuged at 13,300 g and resuspended in five volumes of cold pentane. The pentane suspension is centrifuged for ten minutes at 13,300 g to give a pellet which is dried in the cold under vacuum with periodic pulverization. The dry powder is stable for several weeks when stored at -80° C.
Enzyme stock solution is prepared in the following manner. About 15 mg of the acetone-pentane powder is suspended in 4 ml of cold tris buffer (0.1M, pH 7.4), allowed to stand for five minutes, and homogenized thoroughly. The homogenate is sonicated three times for 15 seconds each time, diluted to 7 ml with cold tris buffer (0.1M, pH 7.4), and centrifuged at 4° C. for 60 minutes at 13,300 g. The supernatent is retained and diluted to a total of 10 ml with cold tris buffer (0.1M, pH 7.4) to give the stock enzyme solution. Additional dilutions of 2-50 fold are done as necessary to locate optimal enzyme reaction rate in the assay described below.
Substrate solution is prepared at 100 μM or 1.0 μM concentrations of arachidonic acid or linoleic acid in 0.1M tris buffer, pH 9.0 containing 20% ethanol.
The enzyme reaction is followed spectrophotometrically by the appearance of a conjugated diene product at 234 nm. The reaction is monitored at 24° C. using a Gilford Model 2600 spectrophotometer. […] The effects of inhibitors on the reaction are compared with control reactions run under indentical conditions. Routinely, each compounds of the present invention is incubated with the enzyme for five minutes prior to addition of substrate to initiate the reaction. Inhibition expressed as IC50 as molar concentration of the compound required to reduce reaction rate to 50% control.

For `O=C(O)c1ccc(CCc2ccc(NC(=O)C3CS(=O)(=O)c4ccccc4C3=O)cc2)cc1` (stereo not shown) [Example 12, 4-[2-[4-[[(3,4-Dihydro-4-oxo-2H-1-benzothiopyran-3-yl)carbonyl]amino]phenyl]ethyl]benzoic acid, 1,1-dioxide], the “RBL, % Inhibition” value (leukotriene receptor; 1.00 E -4 M) was 0.0%.
For `O=C(Nc1ccc(CCc2cc(O)c(O)c(O)c2)cc1)C1=C(O)c2ccccc2S(=O)(=O)C1` [Example 36], the “LDAH, % Inhibition” value ([1]; 2.50 E -5 M) was 0.0%, the “RBL, % Inhibition” value (leukotriene receptor; 1.00 E -4 M) was 78.0% and 81.0% and the “RBL, % Inhibition” value (leukotriene receptor; 1.00 E -5 M) was 7.0%. The “RBL, % Inhibition” value (leukotriene receptor; 2.00 E -5 M) was 27.0%, the “RBL, % Inhibition” value (leukotriene receptor; 2.00 E -6 M) was 6.0% and the “RBL, % Inhibition” value (leukotriene receptor; 3.15 E -5 M) was 80.0%. The “RBL, % Inhibition” value (leukotriene receptor; 5.00 E -5 M) was 59.0% and the “RBL, % Inhibition” value (leukotriene receptor; 5.00 E -6 M) was 3.0%.
In the case of `O=C(Nc1ccc(CCc2ccccc2O)cc1)C1=C(O)c2ccccc2S(=O)(=O)C1` [Example 38], the “LDAH, % Inhibition” value ([1]; 2.50 E -5 M) is reported as 0.0%, the “LDAH, % Inhibition” value ([1]; 8.00 E -5 M) is reported as 0.0% and the IC50 (leukotriene receptor; 0.2 nM 3H-LTD4, guinea pig lung membranes, 60 min, 25 °C, read-out: RBL, concentration for 50% inhibition (IC)) is reported as 26.5 µM.
For `CN(C)c1ccc(CCc2ccc(NC(=O)C3CS(=O)(=O)c4ccccc4C3=O)cc2)cc1` (stereo not shown) [Example 55], the “RBL, % Inhibition” value (leukotriene receptor; 1.00 E -5 M) was 6.0%, the “RBL, % Inhibition” value (leukotriene receptor; 1.00 E -6 M) was 5.0% and the “RBL, % Inhibition” value (leukotriene receptor; 2.00 E -5 M) was 12.0%. The “RBL, % Inhibition” value (leukotriene receptor; 2.00 E -6 M) was 10.0%, the “RBL, % Inhibition” value (leukotriene receptor; 5.00 E -5 M) was 11.0% and the “RBL, % Inhibition” value (leukotriene receptor; 5.00 E -6 M) was 13.0%.
With `CCCCCCCCCCc1ccc(NC(=O)C(=O)c2sc3ccc(Cl)cc3c2O)cc1` [Example 135, Benzo[b]thiophene-2-acetamide, 5-chloro-N-(4-decylphenyl)-3-hydroxy-α-oxo] the “RBL, % Inhibition” value (leukotriene receptor; 1.00 E -4 M) was 43.0%.
For `O=C(Nc1ccc(CCc2ccc(Cl)cc2)cc1)C(=O)c1sc2ccccc2c1O` [Example 137, Benzo[b]thiophene-2-acetamide, N-[4-[2-(4-chlorophenyl)ethyl]phenyl]-3-hydroxy-α-oxo], the “RBL, % Inhibition” value (leukotriene receptor; 1.00 E -4 M) was 12.0%.
With `COc1ccc(CCc2ccc(NC(=O)C(=O)c3sc4ccc(Cl)cc4c3O)cc2)cc1OC` [Example 139, Benzo[b]thiophene-2-acetamide, 5-chloro-N-[4-[2-(3,4-dimethox-yphenyl)ethyl]phenyl]-3-hydroxy-α-oxo] the “RBL, % Inhibition” value (leukotriene receptor; 1.00 E -4 M) was 25.0%.
For `O=C(Nc1ccc(CCc2ccc(Cl)cc2)cc1)c1sc2ccccc2c1O` [Example 145, Benzo[b]thiophene-2-carboxamide, N-[4-[2-(4-chlorophenyl)ethyl]phenyl]-3-hydroxy], the “RBL, % Inhibition” value (leukotriene receptor; 1.00 E -4 M) was 30.0%.
